In paper PMC9783648, “Comparative Analysis of Aristolochic Acids in Aristolochia Medicinal Herbs and Evaluation of Their Toxicities” (Toxins, 2022):
Where two headings read alike, the source gives them in different places.

Columns and labels:
[1] = Cytotoxicity assay, MTT method; format: cell-based, Human; details: human, HepG2, MTT, 72 h incubation, n = 3
Experimental: (§1) The cytotoxicity of the compounds to HepG2 was determined using the MTT method. First, the cells were transferred from the culture dish to a centrifuge tube, and centrifuged for 5 min (at 1000 r/min). After discarding the supernatant, the tumor cells were cultured in a complete medium containing 15% fetal bovine serum at 37 C, 5% CO2, and saturated humidity. When the cells grew logarithmically, they were spread onto plates, and the cell density was adjusted to 8.0 × 10^4 cells/mL before the cell sap was added into a 96-well plate (200 µL per well). The cells grew adherent for 24 h. After 24 h, 2 µL of two standards, two extracts of medicinal herbs were added to each plate well and incubated for 72 h. Adriamycin was used as the positive control, and the blank control contained 2 µL DMSO. After incubation, 20 μL of 5 mg/mL MTT solution was added, and the plates were incubated for 4 h. The supernatant liquid was removed, and the cells were disrupted with 200 µL of DMSO for 10 min. After the blue crystalline substance was fully dissolved, the absorbance value was measured on a microplate reader with the detection wavelength of 562 nm and the reference wavelength of 630 nm. The IC50 value of each compound was calculated.

DNA of HepG2 cells [2] = test: Comet assay, DNA damage; format: cell-based, Human; details: for tail length compared with blank control group / damage to the DNA of HepG2 cells: AAI 50 μM, AAII 131.5 μM; for tail length compared with blank control group: AMH 10 mg/mL, ADS 93 mg/mL, ADM 3.4 μM, Kruskal–Wallis test
Experimental: Cells in the logarithmic growth phase were inoculated in 6-well plates, and the cell density was adjusted to 2.5 × 10^5 cells /mL, 2 mL per well. After 24 h, the experimental group was combined with AAⅠ (50 μM), AAII (131.5 μM), extracts of the AMH (10 mg/mL) and ADS (93 mg/mL), the positive control group was combined with ADM (3.4 μM), and the blank control group were added with the same volume of cell culture solution. After 48 h of culture, the cells were collected. DNA damage was detected according to the operating instructions of comet assay kit. The experiment was repeated 3 times, and 50 cells were selected at each dose in each experiment and analyzed by Comet Assay software (CASP, http://casplab.com/, accessed on 5 October 2022). The mean values of tail DNA percentage, tail length, and tail moment of three experiments were used to express DNA damage. Results one-way ANOVA was used to test the data between groups, and the difference was statistically significant when p < 0.01. Data and statistical results are generated by GraphPad Prism 7 software.

DNA of HepG2 cells [3] = test: Comet assay, DNA damage; format: cell-based, Human; details: HepG2, 48 h; AAI 50 μM, AAII 131.5 μM, AMH 10 mg/mL, ADS 93 mg/mL, ADM 3.4 μM; Kruskal–Wallis test
HepG2 cell line = test: Cytotoxicity assay, MTT method; format: cell-based, Human
Experimental: as §1

NCI-H187 cell line = tested on: NCI-H187 cell line; parameters: method as in PMID 25865074, PMID 29098873; details: cited from earlier work
A549 = tested on: A549; parameters: method as in PMID 25865074, PMID 29098873; details: cited from earlier work
MCF7 = tested on: MCF7; parameters: method as in PMID 25865074, PMID 29098873; details: cited from earlier work
[4] = means ± SD, read-out: IC50 values of compounds, cytotoxic activity
[5] = HepG2, AAI 50 μM vs AAII 131.5 μM, 48 h
[6] = HepG2, AAI 50 μM vs ADS extract 93 mg/mL, 48 h

## COc1cccc2c1cc1c3c(cc4c(c32)OCO4)C(=O)N1 [AL-I, aristolactam Ι]
[1]; [4]
  IC50: 135.7 ± 0.3 µM

## COc1cccc2c1C(=O)c1c(O)c3c(c(O)c1C2=O)C[C@@](O)(C(=O)CO)C[C@@H]3O[C@H]1C[C@H](N)[C@H](O)[C@H](C)O1 [Extract of ADM, Adriamycin]
[1]; [4]
  IC50: 3.1 ± 0.1 µM
DNA of HepG2 cells [2]; HepG2, 48 h
  tail length compared with blank control group: significantly higher
DNA of HepG2 cells [3]
  tail DNA content compared with blank control group: significant differences

## O=C(O)c1cc2c(c3c1c([N+](=O)[O-])cc1ccc(O)cc13)OCO2 [AAC, aristolochic acid ΙΙΙ a]
[1]; [4]
  IC50: 293.5 ± 0.3 µM

## COc1cccc2c1cc([N+](=O)[O-])c1c(C(=O)O)cc3c(c12)OCO3 [AAI, Aristolochic acid I]
[1]; [4]
  IC50 at 72 h: 50.2 ± 0.2 µM
HepG2 cell line
  cytotoxicity against HepG2 cell line: moderate cytotoxicity
DNA of HepG2 cells [2]; HepG2, 48 h
  damage to the DNA of HepG2 cells: obviously caused damage to the DNA
  tail length compared with blank control group: significantly higher
DNA of HepG2 cells [2]; [5]
  tail DNA content, increase relative to AAII: 16 times
  tail length, increase relative to AAII: 12.8 times
  tail moment, increase relative to AAII group: 110 times
DNA of HepG2 cells [2]; [6]
  tail DNA content, increase relative to ADS: 4.7 times
  tail length, increase relative to ADS: 6.8 times
  tail moment, increase relative to ADS group: approximately 70 times
DNA of HepG2 cells [2]; HepG2, at 50 μM, 48 h
  damage to cellular DNA, TDNA: 40–95%
DNA of HepG2 cells [3]
  tail DNA content compared with blank control group: significant differences

## COc1cc(O)cc2c1cc([N+](=O)[O-])c1c(C(=O)O)cc3c(c12)OCO3 [AAD, Aristolochic acid IVa]
[1]; read-out: IC50 values of compounds, cytotoxic activity (symbol)
  IC50: > 1000 µM
HepG2 cell line
  cytotoxicity against HepG2 cell line: no cytotoxicity

## COc1cc2c3c(cc4ccccc4c3c1OC)NC2=O [AL-BII]
[1]; [4]
  IC50: 0.2 ± 0.1 µM
HepG2 cell line
  cytotoxicity against HepG2 cell line: most potent cytotoxicity
NCI-H187 cell line
  cytotoxicity against NCI-H187 cell line: selective cytotoxicity
A549
  cytotoxicity against A549: no cytotoxicity
MCF7
  cytotoxicity against MCF7: no cytotoxicity

## COc1cc2c3c(cc4ccccc4c3c1O)NC2=O [AL-FI]
[1]; [4]
  IC50: 417.2 ± 0.2 µM

## O=C(O)c1cc2c(c3c1c([N+](=O)[O-])cc1ccccc13)OCO2 [AAII]
[1]; [4]
  IC50: 131.4 ± 0.1 µM
DNA of HepG2 cells [2]; HepG2, 48 h
  damage to cellular DNA, TDNA: 5–20%
  damage to the DNA of HepG2 cells: no obvious damage
DNA of HepG2 cells [3]
  tail DNA content compared with blank control group: no significance
